{"source": "paper PMC9863266", "about": "“Preclinical Studies and Drug Combination of Low-Cost Molecules for Chagas Disease” (Pharmaceuticals, 2022)", "key": {"[1]": {"system": "CL Brener clone of T. cruzi", "test": "Acute murine model of Chagas disease", "type": "in vivo, Balb/c mice", "experimental": "Three-month-old Balb/c mice were infected (day 0) with infected blood from mice at the beginning of the peak of parasitemia (parasitemia greater than 1.0 × 10^6 p /mL with the CL Brener clone of T. cruzi) by intraperitoneal injection (10,000 parasites per mouse). Parasitemia was followed from the fourth-day post-infection until all the mice in the group were positive. Parasitemia measurements were performed by optical microscopy. Once all the mice were positive, the treatment was started. The treatment lasted 15 consecutive days; the compounds were administered orally by intragastric cannula once a day. Parasitemia was monitored weekly. At 30 and 60 days, 200 μL of blood was extracted from the mouse tail for serological tests (ELISA test) to detect antigens of T. cruzi. Day 60 was the end of the experiment, and the animals were sacrificed.\nHemoconcentration and counting micromethod: the mice were bled by pricking the tail and taking the blood with capillaries. One capillary per mouse draws 8-18 mm in height of blood. The millimeters were converted to μL by a table previously described and calibrated in the laboratory. The capillaries were centrifuged at 3000× g for 40 s. The parasitic load in the capillary was observed by optical microscopy (OM) in the capillary: the red blood cells (GR) were distributed at one end and the supernatant serum at the other end, at the interface is the trypomastigotes. Then, the capillary was cut a few mm on the interface towards the GR part and its content was spread on a slide, covered with a coverslip. Then, the total number of parasites in 50 fields (OM at 40× magnification) was counted. This sum was then multiplied by 1/50 to obtain the average number of trypomastigotes per field, corresponding to the number of trypanosomes per 5 mm^3. This was then compared to the samples from control animals. The mean and standard deviation were calculated by using OriginPro9 and GraphPad Prism 5. Comparisons of parasite suppression were completed by the analysis of variance (two-way ANOVA as a […] statistical test)."}, "zebrafish embryos": {"system": "zebrafish embryos", "design": "method as in earlier work", "details": "cited from earlier work"}, "cruzipain": {"system": "cruzipain", "details": "cited from earlier work"}, "Leishmania infantum": {"system": "Leishmania infantum", "design": "method as in earlier work", "details": "amastigotes; read-out: In vitro anti-Leishmania infantum (visceral) activity (IC50); cited from earlier work"}, "[2]": {"system": "Leishmania spp (cutaneous) promastigotes", "design": "method as in earlier work", "details": "read-out: In vitro anti-Leishmania spp (cutaneous) activity (IC50); cited from earlier work"}, "T. cruzi amastigotes": {"system": "T. cruzi amastigotes", "design": "method as in earlier work", "details": "read-out: In vitro anti-T. cruzi activity (multiple strains) (IC50); cited from earlier work"}, "[3]": {"system": "Salmonella typhimurium strains TA98, T100, T102, TA1535, and TA1537", "details": "cited from earlier work"}, "CD1 and Balb/c mice": {"system": "CD1 and Balb/c mice", "design": "method as in earlier work", "details": "cited from earlier work"}, "CD-1 mice [4]": {"system": "CD-1 mice", "details": "mouse, in vivo; cited from earlier work"}, "[5]": {"system": "epimastigote form of T. cruzi, Tulahuen 2 strain", "test": "Mechanism of death by flow cytometry, AV/IP labeling", "type": "cell-based", "details": "24 h; 20 × IC50", "experimental": "Parasites were immediately analyzed on an Accuri C6 flow cytometer (BD Bioscience, Franklin Lakes, New Jersey, U.S.). […] Ten thousand events were analyzed for each of the two independent experiments. Data were analyzed using BD CSampler software (BD Bioscience). Untreated parasites were used as a control. For the positive control of apoptosis and necrosis, the parasites were treated with hydrogen peroxide (H2O2) 50 µM and 100 µM for 2.5 h, respectively. These single-spot controls were used to calculate color compensation for flow cytometry."}, "CD-1 mice [6]": {"system": "CD-1 mice", "test": "Micronucleus test in mice (genotoxicity)", "details": "positive control, 50 mg/kg intraperitoneal, single dose 24 h before sacrifice", "experimental": "The protocol was approved by the Paraguayan ethics committee for animal experimentation (No. IORG0010088). […] The treatment of each group was repeated five times, totaling 5 animals per concentration. The route used in the administration of the negative control and the compound (groups I and II) was oral, using an esophageal cannula and in group III the route was intraperitoneal. The intervention was carried out in two doses: 24 and 48 h before sacrifice, except for cyclophosphamide, which was administered in a single dose, 24 h before sacrifice. At the end of the experiment, the femurs were harvested, and the red bone marrow was removed with fetal bovine serum, kept at 37 °C. […] Samples were stained with 4 % Giemsa stain for 3 min and analyzed under an immersion light microscope. For each treated animal, 1000 polychromatic erythrocytes (EPCs) were counted, including those that presented micronucleus (EPCMNs). The ratio of polychromatic erythrocytes (EPC) vs. normochromatic erythrocytes (ENC), upon counting 100 cells, was also evaluated. The proportion of EPCMNs was calculated for each group, and the treated groups with the compound and cyclophosphamide were compared with the negative control group. The statistical analysis was carried out from the individual values of the evaluated parameters, calculating the mean values and their standard deviations for each of the experimental groups. […]"}}, "note": "Several values for one entry are separate records, joined by “and”; a condition that tells them apart may be missing. Equal values may be shown once."}
{"smiles": "O=C(Cn1ccnc1[N+](=O)[O-])NCc1ccccc1", "note": "[Bnz, Benznidazole]", "values": [{"measurement": "Days Post-Infection of the First Parasitemia Peak", "setting": "[1]; 10 µmoles/kg/day", "result": 15, "unit": "days"}, {"measurement": "Reduction in the Parasitemia Peak (%)", "setting": "[1]; 10 µmoles/kg/day", "result": 80, "unit": "%"}, {"measurement": "Survival (%)", "setting": "[1]; 10 µmoles/kg/day", "result": 100, "unit": "%"}, {"measurement": "Days Post-Infection of the First Parasitemia Peak", "setting": "[1]; 38 µmoles/kg/day", "result": 15, "unit": "days"}, {"measurement": "Reduction in the Parasitemia Peak (%)", "setting": "[1]; 38 µmoles/kg/day", "result": 90, "unit": "%"}, {"measurement": "Survival (%)", "setting": "[1]; 38 µmoles/kg/day", "result": 100, "unit": "%"}, {"measurement": "Days Post-Infection of the First Parasitemia Peak", "setting": "[1]; 48 µmoles/kg/day", "result": 43, "unit": "days"}, {"measurement": "Reduction in the Parasitemia Peak (%)", "setting": "[1]; 48 µmoles/kg/day", "result": 95, "unit": "%"}, {"measurement": "Survival (%)", "setting": "[1]; 48 µmoles/kg/day", "result": 100, "unit": "%"}]}
{"smiles": "CC(=NNC(N)=S)[C@H]1CC[C@H]2[C@@H]3CC=C4C[C@@H](O)CC[C@]4(C)[C@H]3CC[C@]12C", "note": "[Compound 1260, 1-(3β-Hydroxy-pregn-5-ene-20E-ylydene)thiosemicarbazide]", "values": [{"measurement": "Teratogenicity in zebrafish (LD50)", "setting": "zebrafish embryos", "result": "> 15", "unit": "µM"}, {"measurement": "Cruzipain inhibitor (known)", "setting": "cruzipain", "result": "not an inhibitor of cruzipain"}, {"measurement": "IC50", "setting": "Leishmania infantum", "result": "< 200", "unit": "nM"}, {"measurement": "IC50", "setting": "[2]", "result": "< 20000", "unit": "nM"}, {"measurement": "IC50", "setting": "T. cruzi amastigotes", "result": 100, "unit": "nM"}, {"measurement": "Ames test (mutagenicity)", "setting": "[3]", "result": "NO"}, {"measurement": "Acute oral toxicity in mice (Up and Down test, LD50)", "setting": "CD1 and Balb/c mice", "result": "> 2000 mg/kg of body weight"}, {"measurement": "Micronucleus test in mice (Genotoxicity)", "setting": "CD-1 mice [4]", "result": "NO"}]}
{"smiles": "CC1CS(=O)(=O)CCN1/N=C/c1ccc([N+](=O)[O-])o1", "note": "(stereo not shown) [Nfx, Nifurtimox, reference compound]", "values": [{"measurement": "AV/IP labeling Q1-UR (double AV+/IP+ labeling)", "setting": "[5]", "result": 59, "unit": "%"}]}
{"smiles": "O=P1(N(CCCl)CCCl)NCCCO1", "note": "(stereo not shown) [cyclophosphamide, reference compound]", "values": [{"measurement": "Micronucleus test in mice (Genotoxicity) (mean of MnPE ±SD)", "setting": "CD-1 mice [6]", "result": "36 ± 2 MnPE and 36 ± 2 (cyclophosphamide) MnPE"}]}
